Laboratory results reported in patent publication US10494380B2, “Nitrogen-containing tricyclic derivatives having HIV replication inhibitory activity” (priority 2015, dated 2019).
Like-named read-outs stand apart in the source and are kept apart here.

How the values were obtained:
Format in all cases: cell-based
HIV = details: EC50 in the presence of human serum (25%) versus without human serum, MT-4 cells
Method in brief: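 HIV-infected MT-4 cells (3×10^4/well, infected 1 h at 37° C) are grown 4 days with compound that was first mixed 1 h with human serum or with medium only. Potency shift is the EC50 with serum divided by the EC50 without serum.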

HIV (HTLV-IIIB strain) = test: HIV replication inhibition assay (Test Example 1; MT-4 cells, MTT); details: MT-4 cells, MTT; for EC50: read-out: EC50; for EC90: read-out: EC90
Procedure: HIV (HTLV-IIIB strain) persistent infected human T cell strain Molt-4 clone8 was cultured in RPMI-1640 medium supplemented with 10% fetal bovine serum and the supernatant was filtered, then the virus titer was measured and stored at −80° C. Each anti-human immunodeficiency virus active substance was diluted with the above culture medium to the designated concentration, which was dispensed into 96-well microtiter plate by 50 μL. Next, 100 μL of MT-4 cell suspension (2.5×10^4 cells) was dispensed into each well, then 50 μl of the above HIV-containing supernatant diluted with the above culture medium was added thereto (60 pfu (plaque forming unit)).
Cell mixture was cultured at 37° C. in CO2 incubator for four days, then 30 μL of MTT (3-(4,5-dimethylthiazole-2-yl)-2,5-diphenyltetrazolyum bromide) reagent (5 mg/mL in PBS) was added to all wells followed by incubation for 1 hour. In this step, MTT was reduced to insoluble formazan in living cells. To elute generated formazan 150 μL of the culture supernatant was removed from all wells, then 150 μL of cell lysis solution (10% Triton X-100 and 0.4% (v/v)-HCl containing isopropanol) was added thereto, followed by shaking with a plate mixer. The formazan was measured with micro plate reader at OD: 560 nm and 690 nm (reference wavelength) and the result was compared with the reference wells. EC50 and EC90 mean the compound concentration at which cytotoxicity caused by virus infection is inhibited 50% and 90%, respectively.

[1] = tested on: T125A mutant virus (HIV-1 NL-432 recombinant molecular clone, IN gene); test: HIV replication inhibition assay against integrase 124/125 mutant virus (Test Example 2)
Method in brief: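 EC50 is the compound concentration blocking half of virus-induced cell death, measured by MTT (OD 560 nm, 690 nm reference) after 4 days at 37 °C. Integrase 124/125 mutant NL-432 virus from transfected 293T cells (60 pfu) was added to 2.5×10^4 MT-4 cells with compound.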

[2] = Human immunodeficiency virus 1, MT4, 96 h, HIV (HTLV-IIIB strain), four days
[3] = Human immunodeficiency virus 1, MT4, read-out: EC50 against T125A mutant virus, T125A mutant virus (HIV-1 NL-432 IN gene), MT-4 cells, MTT
[4] = HIV (HTLV-IIIB strain), four days
[5] = Human immunodeficiency virus 1, MT4, 96 h, HIV HTLV-IIIB strain, cultured four days

Compound	Potency shift value (HIV)	EC50 (HIV (HTLV-IIIB strain); [2]) [nM]	EC90 (HIV (HTLV-IIIB strain); [2]) [nM]	EC50 [1, 3] [nM]	EC50 (HIV (HTLV-IIIB strain); [4]) [nM]	EC90 (HIV (HTLV-IIIB strain); [4]) [nM]	EC50 ([1]; T125A mutant virus (HIV-1 NL-432 IN gene), MT-4 cells, MTT, read-out: EC50 against T125A mutant virus) [nM]	EC50 (HIV (HTLV-IIIB strain); [5]) [nM]
Cc1ccc(-c2c([C@H](OC(C)(C)C)C(=O)O)c(C)c3c4c2cc(C)n4CCN3c2ncc(N3CCOCC3)cn2)cc1 [Compound I-272]	16	1.6	2	4.3	–	–	–	–
Cc1ccc(-c2c([C@H](OC(C)(C)C)C(=O)O)c(C)c3c4c2c(Cl)c(C)n4CCN3C)cc1 [Compound I-002]	–	2.2	3.5	21	–	–	–	–
Cc1ccc(-c2c([C@H](OC(C)(C)C)C(=O)O)c(C)c3c4c2cc(C)n4CCN3c2ncc(C3CCN(C)CC3)cn2)cc1 [Compound I-213]	3.9	–	–	–	12	19	31	–
Cc1c([C@H](OC(C)(C)C)C(=O)O)c(-c2ccc(Cl)cc2)c2cc(C)n3c2c1N(c1ncc(N2CCOCC2)cn1)CC3 [Compound I-246]	23	2.3	2.5	4.5	–	–	–	–
Cc1ccc(-c2c([C@H](OC(C)(C)C)C(=O)O)c(C)c3c4c2cc(C)n4CCN3c2ncc(OCC3COC3)cn2)cc1 [Compound I-268]	19	1.5	2.1	4.8	–	–	–	–
Cc1c([C@H](OC(C)(C)C)C(=O)O)c(-c2ccc(F)cc2)c2cc(C)n3c2c1N(CCN(C)C)CC3 [Compound I-171]	1.4	–	24	62	–	–	–	15
CCN1CCn2c(C)cc3c(-c4ccc(C)cc4)c([C@H](OC(C)(C)C)C(=O)O)c(C)c1c32 [Compound I-009]	38	0.98	1.6	14	–	–	–	–
Cc1c([C@H](OC(C)(C)C)C(=O)O)c(-c2ccc(Cl)cc2)c2cc(C)n3c2c1NC(=O)C3 [Compound I-016]	8.6	8.7	13	42	–	–	–	–
Cc1ccc(-c2c([C@H](OC(C)(C)C)C(=O)O)c(C)c3c4c2cc(C)n4CCN3CCNC2CC2)cc1 [Compound I-028]	2.5	74	93	–	–	–	–	–
Cc1ccc(-c2c([C@H](OC(C)(C)C)C(=O)O)c(C)c3c4c2cc(C)n4CCN3c2noc(C)n2)cc1 [Compound I-227]	15	1	1.4	4.1	–	–	–	–
Cc1ccc(-c2c([C@H](OC(C)(C)C)C(=O)O)c(C)c3c4c2cc(C)n4CCN3CCN2C3CCC2COC3)cc1 [Compound I-172]	2.3	–	5.4	16	–	–	–	3.5
Cc1ccc(-c2c([C@H](OC(C)(C)C)C(=O)O)c(C)c3c4c2cc(C)n4CCN3c2ccc(C)nn2)cc1 [Compound I-287]	12	1.4	2.2	5.1	–	–	–	–
Cc1ccc(-c2c([C@H](OC(C)(C)C)C(=O)O)c(C)c3c4c2cc(C)n4CC(=O)N3C)cc1 [Compound I-020]	41	9.5	12	–	–	–	–	–
Cc1ccc(-c2c([C@H](OC(C)(C)C)C(=O)O)c(C)c3c4c2cc(C)n4CCN3c2ncc(O[C@@H]3CCN(C)C3)cn2)cc1 [Compound I-279]	3.5	5.1	7.7	13	–	–	–	–
CC(=O)N1CCn2c(C)cc3c(-c4ccc(C)cc4)c([C@H](OC(C)(C)C)C(=O)O)c(C)c1c32 [Compound I-014]	8.7	1.6	2.2	15	–	–	–	–
Cc1ccc(-c2c([C@H](OC(C)(C)C)C(=O)O)c(C)c3c4c2cc(C)n4CCN3c2ncc(C)cn2)cc1 [Compound I-235]	46	1.6	–	2.8	–	–	–	–

Compound	Potency shift value (HIV)	EC50 (HIV (HTLV-IIIB strain); [2]) [nM]	EC90 (HIV (HTLV-IIIB strain); [2]) [nM]	EC50 [1, 3] [nM]	EC50 (HIV (HTLV-IIIB strain); [4]) [nM]	EC90 (HIV (HTLV-IIIB strain); [4]) [nM]	EC50 ([1]; T125A mutant virus (HIV-1 NL-432 IN gene), MT-4 cells, MTT, read-out: EC50 against T125A mutant virus) [nM]	EC50 (HIV (HTLV-IIIB strain); [5]) [nM]
Cc1ccc(-c2c([C@H](OC(C)(C)C)C(=O)O)c(C)c3c4c2cc(C)n4CCN3c2ncc(OCCN3CCOCC3)cn2)cc1 [Compound I-276]	5.9	1.5	2.5	5.1	–	–	–	–
CNCC(=O)N1CCn2c(C)cc3c(-c4ccc(Cl)cc4)c([C@H](OC(C)(C)C)C(=O)O)c(C)c1c32 [Compound I-018]	6.8	83	100	–	–	–	–	–
Cc1ccc(-c2c([C@H](OC(C)(C)C)C(=O)O)c(C)c3c4c2cc(COCc2ccccc2)n4CCN3C)cc1 [Compound I-005]	7.8	31	46	–	–	–	–	–
Cc1ccc(-c2c([C@H](OC(C)(C)C)C(=O)O)c(C)c3c4c2cc(C)n4CCN3)cc1 [Compound I-015]	11	27	40	–	–	–	–	–
CCCc1cc2c(-c3ccc(C)cc3)c([C@H](OC(C)(C)C)C(=O)O)c(C)c3c2n1CCN3C [Compound I-013]	49	9.7	15	–	–	–	–	–
COCc1cc2c(-c3ccc(C)cc3)c([C@H](OC(C)(C)C)C(=O)O)c(C)c3c2n1CCN3C [Compound I-011]	21	16	24	–	–	–	–	–
Cc1ccc(-c2c([C@H](OC(C)(C)C)C(=O)O)c(C)c3c4c2cc(CO)n4CCN3C)cc1 [Compound I-022]	4.5	17	25	–	–	–	–	–
COc1ccc(N2CCn3c(C)cc4c(-c5ccc(Cl)cc5)c([C@H](OC(C)(C)C)C(=O)O)c(C)c2c43)nc1 [Compound I-192]	11	–	–	4.6	–	–	–	–
Cc1ccc(-c2c([C@H](OC(C)(C)C)C(=O)O)c(C)c3c4c2ccn4CCN3C)cc1 [Compound I-004]	–	4.1	6	48	–	–	–	–
Cc1c([C@H](OC(C)(C)C)C(=O)O)c(-c2ccc(Cl)cc2)c2cc(C)n3c2c1N(C1=NCCO1)CC3 [Compound I-180]	7.8	–	–	13	–	–	–	–
Cc1ccc(-c2c([C@H](OC(C)(C)C)C(=O)O)c(C)c3c4c2cc(C)n4CCN3c2cccc(C(=O)N(C)C)n2)cc1 [Compound I-269]	7.4	–	–	29	–	–	–	–
Cc1c([C@H](OC(C)(C)C)C(=O)O)c(-c2ccc(Cl)cc2)c2cc(C)n3c2c1N(c1ncc(CN(C)C)cn1)CC3 [Compound I-313]	7.7	–	–	8.8	–	–	–	–
Cc1c([C@H](OC(C)(C)C)C(=O)O)c(-c2ccc(Cl)cc2)c2cc(C)n3c2c1N(c1ncc(C2CCOCC2)cn1)CC3 [Compound I-311]	15	–	–	3.1	–	–	–	–
Cc1ccc(-c2c([C@H](OC(C)(C)C)C(=O)O)c(Cl)c3c4c2cc(C)n4CCN3)cc1 [Compound I-247]	7.6	–	–	8.3	–	–	–	–
Cc1c([C@H](OC(C)(C)C)C(=O)O)c(-c2ccc(Cl)cc2)c2cc(C)n3c2c1N(c1ncc(COCCN(C)C)cn1)CC3 [Compound I-315]	3.9	–	–	80	–	–	–	–
